Test system: Factor VII
Experiment: In vivo Factor VII knockdown with anti-Factor VII siRNA in lipidoid formulations
Details: mice, 0.01 mg/kg siRNA dosing
Experimental: C57BL/6 mice (Charles River Labs) received either saline or siRNA in lipidoid formulations via tail vein injection at a volume of 0.01 ml/g. […] At 48 hours after administration, animals were anesthetized by isofluorane inhalation and blood was collected into serum separator tubes by retroorbital bleed. Serum levels of Factor VII protein were determined in samples using a chromogenic assay (Biophen FVII, Aniara Corporation) according to the manufacturer's protocols. A standard curve was generated using serum collected from saline-treated animals. Exemplary results are depicted in FIG. 7.
To test siRNA delivery efficacy in vivo, a mouse model for liver delivery was used. […] Once produced by hepatocytes, Factor VII is released into the bloodstream, and a baseline level of expression can be determined by simple blood draw and quantification of protein levels by colorimetric assay. By delivering anti-Factor VII siRNA to hepatocytes, knockdown of this model protein can be achieved and a percentage of silencing can be determined by comparison to an untreated control. […]
Following the initial in vivo screening experiments, two compounds were used to conduct a dose response. […] In addition to Factor VII measurement, the change in mouse body weight is recorded and a loss in weight is generally considered formulation induced toxicity (See FIG. 13b and FIG. 14b). […]

Compound	reduction of systemic Factor VII (preliminary)	difference between Factor VII results of racemic C12-200 and those of the R or S forms
CCCCCCCCCC[C@@H](O)CN(CCN1CCN(CCN(C[C@H](O)CCCCCCCCCC)C[C@H](O)CCCCCCCCCC)CC1)CCN(C[C@H](O)CCCCCCCCCC)C[C@H](O)CCCCCCCCCC [(R)-C12-200]	approximately 50%	–
CCCCCCCCCCC(O)CN(CCN1CCN(CCN(CC(O)CCCCCCCCCC)CC(O)CCCCCCCCCC)CC1)CCN(CC(O)CCCCCCCCCC)CC(O)CCCCCCCCCC (centres unmarked) [C12-200]	–	insignificant
